For data set [1] the following is noted: co-administered RMP; trial protocol background; cited from earlier work.
Data set [2] in a line: Steady-state plasma pharmacokinetics of rifabutin and 25-O-desacetylrifabutin, alone and with lopinavir/ritonavir. Conditions: for AUC: AUCτ; for C0: pre-dose.
The nature of data set [3]: Plasma lopinavir and ritonavir pharmacokinetics during rifabutin co-administration. Conditions: for Effect of the different doses of rifabutin on plasma concentrations: rifabutin 150 mg OD vs 150 mg TPW.
Details of data set [4]: method as in earlier work. To be noted: study from the University of Cape Town; trial protocol background; cited from earlier work.
The nature of data set [5]: Adverse events during the trial.
The conditions of data set [6]: South Africa, cited from earlier work.
Where [7] appears, read: rifabutin 150 mg OD with lopinavir/ritonavir, end of dosing interval 24 h, median (range).
Where [8] appears, read: rifabutin 150 mg OD with lopinavir/ritonavir, median (range).
Where [9] appears, read: rifabutin 150 mg TPW plus LPV/r vs rifabutin 300 mg OD alone.
Where [10] appears, read: rifabutin 150 mg TPW with lopinavir/ritonavir, median (range).
The mark [11] stands for this setting: rifabutin 300 mg OD alone, median (range).
[12] abbreviates: All patients, pooled whatever the RBT dosing, median (range).
Setting [13] is: LPV/r 400 mg/100 mg twice daily with RBT 150 mg OD, median (range).
The mark [14] stands for this setting: rifabutin 150 mg OD plus LPV/r vs rifabutin 300 mg OD alone.
Where [15] appears, read: LPV/r 400 mg/100 mg twice daily with RBT 150 mg TPW, median (range).

This is an account of results in PMC3898920 (PLoS ONE, 2014).

What is called AUC is the area under the concentration-time curve, a measure of exposure. Read a high AUC as high exposure.

As to `O=C1Nc2ccc(Cl)cc2[C@@](C#CC2CC2)(C(F)(F)F)O1` [EFV, efavirenz], in data set [1], the “Reduction of bioavailability by RMP” value is “approximately 25%”.
For the compound “25-O-desacetylrifabutin [25-O desacetyl rifabutin]”, the “Cmin n = 15” value in data set [2] (setting [7]) is 114 (73 – 253) ng/mL; in data set [2] (rifabutin 150 mg TPW with lopinavir/ritonavir, end of dosing interval 48 h, median (range)), 67 (11 – 214) ng/mL; in data set [2] (rifabutin 300 mg OD alone, end of dosing interval 24 h, median (range)), 6 (0 – 33) ng/mL. For the same compound, the “Cmin n = 25” value in data set [2] (setting [7]) is 115 (59 – 253) ng/mL. The Tmax in data set [2] (setting [8]) is on record as 4 (2 – 8) h; in data set [2] (setting [10]), 4 (2 – 6) h; in data set [2] (setting [11]), 3 (0 – 5) h. Also, in data set [2] (setting [9]), the “C0 geometric mean ratio (90% CI)” value is reported as 4.35 (3.14;6.02).
In the case of `Cc1ccnc2c1NC(=O)c1cccnc1N2C1CC1` [NVP, nevirapine], the “Reduction of bioavailability by RMP” value in data set [1] is recorded as 35%.
For the compound `Cc1cccc(C)c1OCC(=O)N[C@@H](Cc1ccccc1)[C@@H](O)C[C@H](Cc1ccccc1)NC(=O)[C@H](C(C)C)N1CCCNC1=O` [Lopinavir], the “C0 (trough concentration)” value in data set [3] (setting [12]) was 8739 (<50– 31171) ng/mL; in data set [3] (setting [13]), 9155 (399–27567) ng/mL. Further, the “Effect of the different doses of rifabutin on plasma concentrations” value in data set [3] is “no significant effect”.
As for `CO[C@H]1/C=C/O[C@@]2(C)Oc3c(C)c(O)c4c(O)c(c(/C=N/N5CCN(C)CC5)c(O)c4c3C2=O)NC(=O)/C(C)=C\C=C\[C@H](C)[C@H](O)[C@@H](C)[C@@H](O)[C@@H](C)[C@H](OC(C)=O)[C@@H]1C` [RMP, rifampicin], in data set [4], the “Reduction of drug concentrations by HIV infection” value is 39%.
As to `CO[C@H]1/C=C/O[C@@]2(C)Oc3c(C)c(O)c4c(c3C2=O)C2=NC3(CCN(CC(C)C)CC3)NC2=C(NC(=O)/C(C)=C\C=C\[C@H](C)[C@H](O)[C@@H](C)[C@@H](O)[C@@H](C)[C@H](OC(C)=O)[C@@H]1C)C4=O` [Rifabutin], the “Number of patients with AUCτ less than 4.5 µg.h/mL” value in data set [2] (150 mg OD regimen with LPV/r) was “one”; in data set [2] (150 mg TPW regimen with LPV/r), “four”; in data set [2] (300 mg OD regimen alone), “six”. Further, the “Number of patients with Cmax less than 0.3 µg/mL” value in data set [2] (150 mg TPW regimen with LPV/r) is given as “one”. Further, the Tmax in data set [2] (human, plasma, oral, 150 mg) was 3 h; in data set [2] (setting [10]), 3 (0 – 5) h. For the same compound, the AUC in data set [2] (human, plasma, oral, 150 mg, rifabutin 150 mg OD with lopinavir/ritonavir, τ 24 h, median (range)) stood at 7290 ng·h/mL; in data set [2] (human, plasma, oral, 150 mg, rifabutin 150 mg TPW with lopinavir/ritonavir, τ 48 h, median (range)), 7340 ng·h/mL; in data set [2] (human, plasma, oral, 300 mg, rifabutin 300 mg OD alone, τ 24 h, median (range)), 5640 ng·h/mL. Also, the Cmax in data set [2] (human, plasma, oral, 150 mg, rifabutin 150 mg OD with lopinavir/ritonavir, median (range)) worked out at 671 ng/mL; in data set [2] (human, plasma, oral, 150 mg, rifabutin 150 mg TPW with lopinavir/ritonavir, median (range)), 544 ng/mL; in data set [2] (human, plasma, oral, 300 mg, rifabutin 300 mg OD alone, steady state, median (range)), 792 ng/mL. In addition, the concentration at 24 h in data set [2] (human, plasma, oral, Cmin n = 15, rifabutin 150 mg OD with lopinavir/ritonavir, end of dosing interval 24 h, median (range)) is 161 ng/mL; in data set [2] (human, plasma, oral, Cmin n = 15, rifabutin 300 mg OD alone, end of dosing interval 24 h, median (range)), 61 ng/mL; in data set [2] (human, plasma, oral, Cmin n = 25, rifabutin 150 mg OD with lopinavir/ritonavir, end of dosing interval 24 h, median (range)) it was 169 ng/mL; in data set [2] (human, plasma, oral, Cmin n = 25, rifabutin 300 mg OD alone, end of dosing interval 24 h, median (range)), 79 ng/mL. In data set [2] (human, plasma, oral, Cmin n = 15, rifabutin 150 mg TPW with lopinavir/ritonavir, end of dosing interval 48 h, median (range)), the concentration at 48 h worked out at 54 ng/mL. Also, the “AUCτ geometric mean ratio (90% CI)” value in data set [2] (rifabutin 150 mg OD plus LPV/r (AUC24h) vs rifabutin 300 mg OD alone) is recorded as 1.32 (1.16;1.51); in data set [2] (rifabutin 150 mg TPW plus LPV/r (AUC48h) vs rifabutin 300 mg OD alone), 1.12 (0.92;1.37). Further, the “C0 geometric mean ratio (90% CI)” value in data set [2] (setting [14]) is on record as 2.61 (2.13;3.19); in data set [2] (setting [9]) it was 0.94 (0.73;1.21). Also, the “Cave geometric mean ratio (90% CI)” value is given as 1.32 (1.16;1.51) in data set [2] (setting [14]) and 0.56 (0.46;0.69) in data set [2] (setting [9]). Further, the “Cmax geometric mean ratio (90% CI)” value is 0.88 (0.75;1.04) in data set [2] (setting [14]) and 0.65 (0.51;0.83) in data set [2] (setting [9]). The results for the “Cave (AUCτ/τ)” value in data set [2] (setting [8]), in data set [2] (setting [10]) and in data set [2] (setting [11]) were 304 (147–521) ng/mL, 153 (30–227) ng/mL and 235 (113–370) ng/mL, respectively. The results for the C0 in data set [2] (setting [8]), in data set [2] (setting [10]) and in data set [2] (setting [11]) were 180 (121 – 310) ng/mL, 70 (25 – 413) ng/mL and 74 (13 – 161) ng/mL, respectively. Also, the “Decrease in average steady state concentration (Cave)” value in data set [2] (rifabutin 150 mg TPW with LPV/r compared with rifabutin 300 mg alone) is reported as 44%. In data set [2] (rifabutin 150 mg TPW with LPV/r vs rifabutin monotherapy), the “Decrease in Cmax” value worked out at 35%. Also, the “Mean increase in average steady state concentration (Cave)” value in data set [2] (rifabutin 150 mg daily with LPV/r compared with rifabutin 300 mg alone) came to 32%. In addition, the “Bioequivalence of Cave with rifabutin alone (90% CI within 0.80 to 1.25)” value in data set [2] (the two tested dosing regimens (150 mg OD, 150 mg TPW) combined with lopinavir/ritonavir) is “failed to show bioequivalence”. In addition, the Uveitis result in data set [5] (33 enrolled patients) was “no uveitis”. For the same compound, in data set [5] (33 enrolled patients, one grade 3, none grade 4), the Cases of neutropenia is given as 4. The “Total adverse events (all grades together)” value in data set [5] (33 enrolled patients, rifabutin-based TB treatment with d4T/3TC/LPV/r, whole follow-up) is given as 124. Moreover, the “Hepatic events with raised levels of liver enzymes” value in data set [5] (events occurring in 25 patients, 33 in the first 2 months, 23 after rifabutin was stopped) is reported as 56. Besides, the “AUCτ, median” value in data set [6] (300 mg OD dose) was 3053 ng·h/mL. For the same compound, the “Patients with areas under the curve less than 4.5 µg.h/mL” value in data set [6] (intermittent dose (three times a week) with LPV/r) is on record as “over 85%”.
As to `CC(C)c1nc(CN(C)C(=O)N[C@H](C(=O)N[C@@H](Cc2ccccc2)C[C@H](O)[C@H](Cc2ccccc2)NC(=O)OCc2cncs2)C(C)C)cs1` [Ritonavir], the “C0 (trough concentration)” value in data set [3] (setting [12]) was 303 (25–680) ng/mL; in data set [3] (setting [13]), 314 (25– 569) ng/mL; in data set [3] (setting [15]), 257 (25–680) ng/mL. In addition, the Cmax in data set [3] (setting [15]) is reported as 816 (405–2484) ng/ml. Also, the “Effect of the different doses of rifabutin on plasma concentrations” value in data set [3] was “no significant effect”.
